The text below walks through data of EP4119128A1, “PHARMACEUTICAL COMPOSITION FOR THE ORAL ADMINISTRATION OF POORLY SOLUBLE DRUGS COMPRISING AN AMORPHOUS SOLID DISPERSION” (Dr. Falk Pharma GmbH, priority 2021, dated 2023).

As a reminder, the Papp is a coefficient for how fast a substance crosses the barrier. What is called pKa is the negative logarithm of the acid dissociation constant. Low readings indicate a group that gives up its proton readily, high ones a group that holds its proton tightly.

Structures can show the parent of a compound that is named as a salt. Where two headings read alike, the source gives them in different places. A value given as a limit tells only on which side of the number the result lay.

Series [1] can be described thus: Two-stage biorelevant in vitro dissolution test (acid stage pH 2.0, buffer stage pH 7.0, non-sink conditions). The class given is physicochemical. The text has this:
To characterize the in vitro performance of the gastro-resistant granules that contain the RhuDex® choline salt as an amorphous solid dispersion a predictive biorelevant dissolution method has been developed. The design of the method comprises a two-stage in vitro dissolution test that simulates the conditions of the gastrointestinal passage. In a first step the formulation is exposed to simulated gastric fluid where the enteric protection provided by the outer hypromellose succinate acetate layer should ensure that there is no premature drug substance release from the granules. The subsequent step simulates the condition of the upper intestine where the enteric polymer should immediately dissolve and where the drug substance release should start. The gastro-resistance and the release profile are measured by the amount of RhuDex® choline salt dissolved in the acid and buffer medium. The established test system relies on the use of standard media and buffer systems without the addition of any surfactants or bile acids. […] The extent of the spring and parachute effect should be measurable in the simulated intestinal fluid. The parameters of the biorelevant dissolution method are presented below. Summarizing the established conditions for testing the biorelevant dissolution of RhuDex® choline salt gastro-resistant granules, the studies are conducted under non-sink conditions as follows: […]

Series [2] is described as follows: Saturation solubility, shake-flask method, quantification by HPLC/UV. The settings on record: 0.01 N HCl, 37 °C, pH 2, simulated gastric fluid, thermodynamic from solid, 0.01 N HCl pH 2; 24 h at 37°C. The class given is physicochemical.
Assay in series [3]: as above
The settings on record: for solubility at 24 h: 37 °C, thermodynamic from solid. The class given is physicochemical. Here is the method: The saturation solubility of RhuDex® choline salt determined at 37°C after 24 hours by HPLC/UV using the shake-flask method is at around or below 0.001 mg/mL when using standard media or buffers such as 0.1 N hydrochloric acid pH 1.2 and 50 mM phosphate buffer pH 7.0 or biorelevant media such as Fasted-State Simulated Intestinal Fluid (i.e. FaSSIF) pH 6.5 and Fed-State Simulated Intestinal Fluid (FeSSIF) pH 5.0.
When increasing the pH value above the pKa and beyond the physiological conditions (i.e. pH > 8), the opposite effect occurs as the molecule is transferred into its negatively charged and soluble ion. […] However, these enabling technologies are neither standard nor easily applicable as they directly affect the physical properties of the drug substance and thereby its thermodynamic stability. Therefore, there is an extremely high risk of failure associated with these technologies concluding that the drug substance cannot be further developed into a suitable, stable, bioavailable and commercially viable formulation. Table 2: Saturation solubility of RhuDex® choline salt in biorelevant media (shake-flask method, 24 h at 37°C, quantification by HPLC/UV)

Series [4] in a line: Hygroscopicity of the drug substance. It is filed as physicochemical.
Series [5] in a line: Apparent permeation across Caco-2 cell monolayers. It is filed as in vitro ADME, human. The following applies: human, Caco-2; apical buffer pH 7.0, basolateral buffer pH 7.4; test concentration 127 µg/ml. Here is the method:
(§1) The biorelevant dissolution profile of the embodiment positively affects the second relevant parameter predicting the compound's oral bioavailability, i.e. its permeability. As shown in apparent permeation studies across monolayers formed by human colon carcinoma cell line Caco-2 the spring and parachute effect observed for formulated RhuDex® choline salt also leads to a higher permeation rate when compared with its crystalline and unformulated counterpart. The permeation assays were performed using an apical buffer at a pH value of 7.0 and a basolateral buffer at a pH value of 7.4. The test concentration was set to 127 µg/ml and should represent a potential clinical dose of 31.75 mg RhuDex® choline salt administrered in a volume of 250 ml (i.e. 31.75 mg/250 ml = 0.127 mg/ml). With an apparent permeation value (Papp) of less than 1 (i.e. 0.12 x 10^-6 cm/s) the permeability of crystalline RhuDex® choline salt across Caco-2 cell monolayers must be classified as poor and a low bioavailability of unformulated drug substance can be estimated. However, the Papp value increased to 2.7 x 10^-6 cm/s when using an amorphous solid dispersion of RhuDex® choline salt in the same experiment indicating a remarkable shift from low to moderate permeability. This effect can be cleary attributed to the embodiment.

Series [6] concerns monolayers formed by human colon carcinoma cell line Caco-2. Briefly: Apparent permeation across Caco-2 cell monolayers. The class given is in vitro ADME. The following applies: Caco-2 cell monolayers; 127 µg/ml. Here is the method:
as §1
For orientation: Passage across Caco-2 layers is used to estimate intestinal permeability.

Series [7] can be described thus: pKa value of the drug substance. It is filed as physicochemical. The settings on record: free acid.

For `O=C(NCC(F)F)c1ccc(-n2[nH]c3c(nnc4c(F)cccc43)c2=O)cc1` [RhuDex® choline salt, N-(2,2-difluoroethyl)-4-(6-fluoro-3-oxo-1,3-dihydropyrazolo[4,3-c]cinnolin-2-yl)-benzamide], the “amount in solution when presented in crystalline form” value in series [1] (0.001 mg/ml x 460 ml, buffer pH 7.0) was 0.46 mg. Also, the “dose in solution when presented in crystalline form” value in series [1] (calculated from solubility 0.001 mg/ml in 460 ml buffer pH 7.0, dose 31.75 mg) is on record as 1.4%. Also, the solubility at 24 h in series [2] is 0.1 µg/mL; in series [3] (50 mM borate buffer, pH 9.5, aqueous buffer, 50 mM borate buffer, pH 9.5, read-out: solubility), 1300 µg/mL; in series [3] (50 mM phosphate buffer, pH 7, aqueous buffer, Phosphate buffer 50 mM, pH 7.0, 24 h at 37°C, read-out: Saturation solubility) it was 0.7 µg/mL; in series [3] (50 mM phosphate buffer, pH 7, aqueous buffer, pH 7.0, read-out: solubility of the drug substance) it was approximately 1 µg/mL; in series [3] (aqueous buffer, 37°C, 24 hours, shake-flask, 0.1 N hydrochloric acid pH 1.2, 50 mM phosphate buffer pH 7.0, FaSSIF pH 6.5, FeSSIF pH 5.0, read-out: saturation solubility) it was not above 1 µg/mL; in series [3] (FaSSIF, pH 6.5, fassif, FaSSIF, pH 6.5, 24 h at 37°C, read-out: Saturation solubility), 1.1 µg/mL. Besides, the solubility at 24 h in series [3] (FeSSIF, pH 5, fessif, FeSSIF, pH 5.0, 24 h at 37°C, read-out: Saturation solubility) was 0.1 µg/mL; in series [3] (water, pH 9.9, water, in water, final pH value of the solution 9.9, read-out: solubility), approximately 10000 µg/mL. Besides, in series [3], the “biopharmaceutics classification system (BCS) class” value is listed as “either Class II (low solubility/high permeability) or Class IV (low solubility/low permeability)”. Moreover, the “volume required to completely dissolve one dose” value in series [3] (dose 31.75 mg, minimum solubility 0.001 mg/mL, physiologically relevant conditions) is recorded as “more than 30 L”. In addition, the hygroscopicity result in series [4] is “only slightly hygroscopic”. Moreover, the apparent permeability coefficient (Papp) at 127 µg/ml in series [5] came out at 0.12 ×10⁻⁶ cm/s. Moreover, the permeability classification entry in series [6] is on record as “poor”.

In turn, `O=C(NCC(F)F)c1ccc(-n2[nH]c3c(nnc4c(F)cccc43)c2=O)cc1` [RhuDex® free acid, 4-(6-fluoro-3-oxo-1,3-dihydro-pyrazolo[4,3-c]cinnolin-2-yl)-N-(2,2-difluoro-ethyl)-benzamide] returned a pKa in series [7] of 5.8.
